Converted amounts (≈) assume the structure as drawn.
What was measured:
Assay type in all cases: functional
Helicobacter pylori [1] = assay: In vitro antibacterial activity against Helicobacter pylori (CPY 2052)
Helicobacter pylori [2] = assay: In vitro antibacterial activity against Helicobacter pylori (No. 7)
Helicobacter pylori [3] = assay: In vitro antibacterial activity against Helicobacter pylori (NCTC 11637)
Helicobacter pylori [4] = assay: Antibacterial activity against Helicobacter pylori (CPY 2052)
Helicobacter pylori [5] = assay: Antibacterial activity against Helicobacter pylori (NCTC 11637)
Helicobacter pylori [6] = assay: Antibacterial activity against Helicobacter pylori (No. 7)

Row | Structure (SMILES) | MIC (Helicobacter pylori [1]) [µg/mL] | MIC (Helicobacter pylori [2]) [µg/mL] | MIC (Helicobacter pylori [3]) [µg/mL] | MIC (Helicobacter pylori [4]) [µg/mL] | MIC (Helicobacter pylori [5]) [µg/mL] | MIC (Helicobacter pylori [6]) [µg/mL]
1 | CC(C)=CCC/C(C)=C/CC/C(=C/CC/C(C)=C/C/N=C(\S)NCCc1ccccc1)CO | ≤ 0.1 | ≤ 0.1 | ≤ 0.1 |  |  | 
2 | CC(C)=CCC/C(C)=C/CCC(=CCCC(C)=CCO)C/N=C(\S)NCCc1ccccc1 | 1.56 (≈ 3.33 µM) | 1.56 (≈ 3.33 µM) | 25 (≈ 53.3 µM) |  |  | 
3 | CC(C)=CCC/C(C)=C/CC/C(=C/CC/C(C)=C/C/N=C(\S)NCCc1ccccc1)C/N=C(\S)NCCc1ccccc1 | 0.78 (≈ 1.24 µM) | 6.25 (≈ 9.9 µM) | 6.25 (≈ 9.9 µM) |  |  | 
4 | CC1(C)S[C@@H]2[C@H](NC(=O)[C@H](N)c3ccc(O)cc3)C(=O)N2[C@H]1C(=O)O [AMOXICILLIN] | 0.05 (≈ 0.137 µM) | 0.1 (≈ 0.274 µM) | 0.025 (≈ 0.0684 µM) |  |  | 
5 | CC(C)=CCC/C(C)=C/CC/C(=C/CC/C(C)=C/CO)CO [PLAUNOTOL] |  |  |  | 6.25 (≈ 20.4 µM) | 12.5 (≈ 40.8 µM) | 6.25 (≈ 20.4 µM)

From ChEMBL document CHEMBL1131705, “A highly stereoselective synthesis of plaunotol and its thiourea derivatives as potent antibacterial agents against Helicobacter pylori” (1999)
